Reference: patent US20110039277A1, “Methods of Labeling Proteins” (priority 2008, published 2011)
“Also recorded” adds a separate entry of the source.

Experiments:
[1] = tested on: human neuroblastoma cells; assay: Fluorescent labeling of protein carbonyls (FITC-hydrazide) in rotenone-treated cells; format: cell-based; details: 50 nM rotenone, 24 hours, vs vehicle-treated cells
Experimental: Cells are fixed in cold methanol for 10 minutes at −20° C. Paraformaldehyde and other […] group-containing (and therefore carbonyl group-containing) fixatives should be avoided. The method can be successfully applied to tissues as well.
Carbonyls are labeled with fluorescein-conjugated hydrazide (FITC-NN, FIG. 1, Molecular Probes, cat #F-121). F121 is prepared fresh in dimethyl-formamide. As the reaction between the hydrazine and the carbonyls occurs in acidic environment, the labeling is carried out in 50 mM sodium acetate (pH 4). FITC-NN is used 2 microM final; incubation is carried on 2 hours at room temperature.
Samples are washed in phosphate buffer solution (PBS) for 5 minutes; this step is repeated three times.
From this step onward, a classical immunohistochemistry staining can be performed to detect proteins of interest.
Images are acquired with a laser scanning confocal microscope.

Hsp60 = assay: FRET by acceptor photobleaching between FITC-NN carbonyl label and Cy3 anti-Hsp60 antibody in cells; format: cell-based; details: rotenone-treated cells
Text: Anti-Hsp60 (Stressgen, used at 1:500) was conjugated with Cy3. The procedure can be carried out in a 96-well plate, which can be analyzed with a micro-plate spectrofluorometer. FRET between FITC-NN and a Cy3-labeled specific antibody can be studied to determine if the two fluorophores are in close proximity (<50 Å) and therefore if the protein of interest is oxidized. […] First, the acceptor fluorophore is photobleached over four cycles. In FIG. 3, Cy3 was the acceptor fluorophore and the protein of interest was Hsp60, where Cy3 conjugated with anti-Hsp60 antibody. Second, the emission of the acceptor fluorophore and of the donor fluorophore are determined and compared. If a significant increase in the donor emission is observed after photobleaching the acceptor fluorophore, then the two fluorophores are determined to be in close proximity. […] Therefore, the two fluorophores are in close proximity and indicate that the protein of interest, here Hsp60, is oxidized.

[2] = tested on: dopaminergic neurons of the substantia nigra; assay: Histological labeling of oxidized thiols in substantia nigra of rotenone-treated rats; format: in vivo, Lewis rats; details: chronic rotenone treatment vs control animal
Experimental: (§1) Histological labeling of oxidized thiols. Brains were fixed in 4% paraformaldehyde and processed as described (Betarbet, R.; Sherer, T. B.; MacKenzie, G.; Garcia-Osuna, M.; Panov, A. V.; Greenamyre, J. T. Chronic systemic pesticide exposure reproduces features of Parkinson's disease. Nat Neurosci 3:1301-1306; 2000). After cutting with a freezing microtome, sections were treated immediately in alkylating buffer (100 mM IAM, 100 mM NEM, TrisHCl, pH 6.8) to block free thiols. For cell culture studies, cells were seeded and cultured on coverslips, then fixed in 4% paraformaldehyde, 0.02% Triton-X100 supplemented with 100 mM IAM, 100 mM NEM to block free thiols. After three washes in PBS—10 minutes at room temperature—disulfides were reduced with 25 mM TCEP in PBS for 20 minutes. TCEP was omitted in the control reaction. The samples were labeled with CPM (0.5 mM final) in TrisHCl (0.1 M, pH 6.8) and then washed three times, for 10 minutes, in PBS.
Following the thiol labeling, immunohistochemistry was performed according to standard procedures. Briefly, after a blocking step in 10% serum, samples were incubated over-night with primary antibody (tyrosine hydroxylase, Mab318, Chemicon, Temecula, Calif., 1:2000; OX42, MCA 275G AbD Serotec, Oxford, UK, 1:150; GFAP, Mab 3402, Chemicon, Temecula, Calif., 1:1000). Fluorescently labeled secondary antibodies were used for detection. […]

[3] = tested on: mitochondrial proteins containing oxidized thiols; assay: Thiol-sepharose affinity purification of oxidized mitochondrial proteins from brain regions of rotenone-treated rats; format: in vivo, Lewis rats; details: rotenone animals vs control
Text: Preparation of affinity resin. Activated thiol-sepharose resin 4B (Sigma, St. Louis, Mo., USA) was used in previous studies to purify thiol-containing proteins (Egorov, T. A.; Svenson, A.; Ryden, L.; Carlsson, J. A rapid and specific method for isolation of thiol-containing peptides from large proteins by thiol-disulfide exchange on a solid support. Proc Natl Acad Sci USA 72:3029-3033; 1975); the resin extent of binding was 1 micromol of thiols per mL of medium. The resin rehydrated in milliQ-grade distilled water, 30 minutes, gently shaking at 4° C. […]
In the first technique (FIG. 20), a starting sample (e.g., purified mitochondria from the ventral midbrain of control and rotenone-treated rats) is homogenized and then free thiols are alkylated. […] At this point, the sample can be run over a thiol affinity column and the eluate can be analyzed by SDS-PAGE and Coomassie staining. In an alternative strategy, after the reduction the sample can be reacted with ICAT (isotope coded affinity tag) reagents for mass spectrometry (Gygi, S P, Rist, B, Gerber, S A, Turecek, F, Gelb, M H and Aebersold, R, (1999) Quantitative analysis of complex protein mixtures using isotope-coded affinity tags. Nat Biotechnol 17: 994-9).

substantia nigra = assay: Imaging of carbonyls in substantia nigra of rotenone-treated animals; format: in vivo; details: rotenone-treated animal vs control animal
Text: To detect carbonyls in fixed slices and perform microscopy studies, fluorescein-conjugated hydrazine is used (FITC-hydrazine, please see FIG. 19). As a positive control, carbonyl formation is induced by metal-catalyzed oxidation, treating the samples with iron (Fe^3+) and ascorbate (Amici, A, Levine, R L, Tsai, L and Stadtman, E R, (1989) Conversion of amino acid residues in proteins and amino acid homopolymers to carbonyl derivatives by metal-catalyzed oxidation reactions. J Biol Chem 264: 3341-6 and Halliwell, B and Gutteridge, J M, (1990) Role of free radicals and catalytic metal ions in human disease: an overview. Methods Enzymol 186: 1-85). In the confocal studies, a negative control can be performed preincubating the fixed slices with an excess of DNPH.
Protein carbonyls. Another oxidative modification of proteins is carbonyl formation. Typically, carbonyls are assayed by reacting protein homogenates with hydrazine compounds (e.g., dinitrophenylhydrazine; DNPH) and then measuring the reaction product spectrophotometrically, or with antibody-based techniques. We have used a fluorescent hydrazine compound to directly label carbonyls (FIG. 19). As with thiol labeling, this technique is amenable to FRET so that candidate proteins can be examined for carbonyl content and changes therein in pesticide intoxication.

dopaminergic neurons = assay: Tyrosine hydroxylase, transferrin and oxidized thiol imaging in dopaminergic neurons treated with rotenone; format: cell-based; details: cells treated with rotenone vs control
transferrin = assay: Reducing and non-reducing Western blots of transferrin in substantia nigra; format: in vivo; details: chronic rotenone treatment vs control animal
Text: In the lower panel, left and right, a loading control (39 kDa subunit of mitochondrial complex I) ensures that the initial amount of protein was the equal for all the lanes.

[4] = tested on: SH-SY5Y human neuroblastoma cells; assay: Histochemical detection of oxidized thiols (disulfides) with CPM in cells; format: cell-based; details: tBH 1 mM vs vehicle control
Experimental: as §1
Images were acquired using a laser scanning confocal microscope. The microscope was equipped with a spectral detector technology that provides precise wavelength separation of the emitted light, preventing light leakage between different fluorophores. The following detection ranges were used for each fluorophore: 450 nm-480 nm for UV probes; 515 nm-535 nm for Alexa488; 560 nm-574 nm for Cy3. […]

thioredoxin-1 (trx-1) [5] = assay: FRET between thiol-bound CPM and Alexa488-labeled trx-1 antibody in cells; format: cell-based; details: tBH-treated cells vs baseline
Experimental: as §1, with “The samples were labeled with CPM (0.5 mM final) in TrisHCl (0.1 M, pH 6.8) and then washed three times, for 10 minutes, in PBS.” left out
Direct FRET was detected by reading the acceptor emission (FITC derivative conjugated antibody) at 520 nm while exciting the donor (CPM) with the 405 nm laser. Alternatively, FRET was detected by acquiring the donor (CPM) emission before and after photobleaching of the acceptor fluorophore (Alexa488) with the 488 nm laser. FRET efficiency (Feff) was calculated by the confocal software (version 1.5) according to the equation Feff=1−(empre/empost), where Feff=FRET efficiency, empre=donor emission prebleaching, empost=donor emission post bleaching.

thioredoxin-1 (trx-1) [6] = assay: Redox western blot (10 kDa PEG-maleimide) of thioredoxin-1 in cells; format: cell-based; details: low millimolar concentrations of tBH
Experimental: Western blot analysis to detect proteins with oxidized cysteines. Cells were lysed in alkylating buffer (0.1M TrisHCl pH 6.8, 1% SDS, 100 mM IAM, 100 mM NEM). The lysate was sonicated on ice to disrupt high molecular weight DNA and incubated 30 minutes at room temperature to allow total alkylation of free Cys residues. 200 μg of alkylated proteins were precipitated with 5 volumes of ice-cold acetone and resuspended in 50 microliters of Tris-SDS buffer (0.1M TrisHCl, pH 7.4, 1% SDS). Disulfides were reduced by adding TCEP 5 mM final concentration. The samples were incubated 20 minutes at room temperature to allow complete reduction of disulfides to thiols. TCEP was removed with Micro Bio-spin Chromatography columns 6 (BIORAD, Hercules, Calif.). After the filtration step, the samples were in about 50 μL of 10 mM TrisHCl pH 7.4 (volume was adjusted to 50 μL as necessary). SDS was added to a 1% final concentration.
To label the previously oxidized (and now reduced) cysteines, polyethylene-glycol-conjugated maleimide (molecular weight 10 kDa, SunBio, Orinda, Calif.) was added to 50 micrograms of proteins, 1 mM final concentration, from a 10 mM stock in Tris-SDS buffer. After 1 hour incubation at room temperature, samples were precipitated with ice cold acetone and resuspended in 50 μL of SDS electrophoresis loading buffer. 10 μL (about 10 μg) were used for western blot analysis. […]

Compound	carbonyls (green fluorescence) [1]	FITC (donor) emission after photobleaching of Cy3 acceptor; indicates Hsp60 is oxidized (Hsp60)	oxidized thiols in nigrostriatal dopaminergic (TH-positive) neurons [2]	oxidized mitochondrial proteins eluted from thiol affinity chromatography, striatum ([3]; striata)	oxidized mitochondrial proteins eluted from thiol affinity chromatography, substantia nigra ([3]; substantia nigra (ventral midbrain))	carbonyls in substantia nigra (substantia nigra)	transferrin (trf) level, colocalized with oxidized thiols by FRET (dopaminergic neurons)	oxidized transferrin form in non-reducing gel (transferrin)	oxidized thiols (disulfides) labeling [4]	FRET between CPM and Alexa488 trx-1 antibody (thiol oxidation of Trx-1) (thioredoxin-1 (trx-1) [5])	thiol oxidation (disulfide formation) in trx-1 by redox western blot (thioredoxin-1 (trx-1) [6])
C=C(C)[C@H]1Cc2c(ccc3c2O[C@@H]2COc4cc(OC)c(OC)cc4[C@@H]2C3=O)O1 [rotenone]	detectable increase; also recorded: large increase in carbonyls	significant increase in FITC emission	remarkable and very selective increase in oxidized thiols; also recorded: marked increase in oxidized thiols	No major differences	marked increase in thiol oxidation; also recorded: dramatic increase in oxidized proteins; also recorded: striking increase of oxidized proteins	marked increase in carbonyls	accumulation of transferrin	higher molecular weight form	–	–	–
CC(C)(C)OO [tBH, tert-butyl-hydroperoxide]	–	–	–	–	–	–	–	–	remarkable increase in disulfides; also recorded: dramatic increase of thiol labeling	clear increase in the signal; also recorded: marked increase in direct FRET	quickly induced the formation of disulfides in trx-1; also recorded: induced thiol oxidation in thioredoxin-1
